According to PMC11790949, “A multiplex method for rapidly identifying viral protease inhibitors” (Molecular Systems Biology, 2025):
pIC50: −log10 of the molar value. “And” between values parts separate entries of the source, which are not always exact repeats. Equal values may be shown once.

Legend:
SARS-CoV-2 3CL protease [1] = target: T1, SARS-CoV-2 3CL protease (Severe acute respiratory syndrome coronavirus 2, UniProt P0DTD1); assay: Biochemical inhibition of peptide cleavage by purified SARS-CoV-2 3CL protease (fluorogenic)
SARS-CoV-2 3CL protease [2] = target: T1, SARS-CoV-2 3CL protease; assay: Mass spectrometry (MALDI-TOF) analysis of protein-inhibitor complex; format: binding; settings: 50 μM protease, 500 μM inhibitor, 1 h at 4 °C
Experimental: For MALDI-TOF MS analysis, 1 µL of the protein-inhibitor complex (3CL protease only and 3CL protease-CB6778425) was mixed with 9 µL of 10 mg/mL sinapinic acid in the matrix solution (70:30 water/acetonitrile, with 0.1% TFA). About 1.0 µL of the final mix was deposited onto the target carrier and allowed to air dry. MALDI spectra of the protein-inhibitor complex were compared with ligand-free 3CL protease to determine the mass shift. MALDI spectra were collected with the software flexControl, while MALDI data were analyzed by flexAnalysis.

[3] = read-out: SARS-CoV-2 3CL Inhibition (%)

| SMILES | pIC50 (SARS-CoV-2 3CL protease [1]) | shift of IC50 upon pre-incubation with SARS-CoV-2 3CL (SARS-CoV-2 3CL protease [1]) | inhibition at 0.0976563 µM (SARS-CoV-2 3CL protease [1]; [3]) [%] | inhibition at 0.19382 µM (SARS-CoV-2 3CL protease [1]; [3]) | inhibition at 0.195313 µM (SARS-CoV-2 3CL protease [1]; [3]) [%] | inhibition at 0.390625 µM (SARS-CoV-2 3CL protease [1]; [3]) [%] | inhibition at 0.49485 µM (SARS-CoV-2 3CL protease [1]; [3]) [%] | inhibition at 0.78125 µM (SARS-CoV-2 3CL protease [1]; [3]) [%] | inhibition at 0.79588 µM (SARS-CoV-2 3CL protease [1]; [3]) [%] | inhibition at 1.09691 µM (SARS-CoV-2 3CL protease [1]; [3]) [%] | inhibition at 1.39794 µM (SARS-CoV-2 3CL protease [1]; [3]) [%] | inhibition at 1.69897 µM (SARS-CoV-2 3CL protease [1]; [3]) [%] | inhibition at 2 µM (SARS-CoV-2 3CL protease [1]; [3]) [%] | inhibition at 2.30103 µM (SARS-CoV-2 3CL protease [1]; [3]) [%] | inhibition at 0.000762939 µM (SARS-CoV-2 3CL protease [1]; [3]) [%] | inhibition at 0.00152588 µM (SARS-CoV-2 3CL protease [1]; [3]) [%] | inhibition at 0.0244141 µM (SARS-CoV-2 3CL protease [1]; [3]) [%] | inhibition at 0.0488281 µM (SARS-CoV-2 3CL protease [1]; [3]) [%] | inhibition at […] (SARS-CoV-2 3CL protease [1]; [3]) [%] | mass shift in the protease-inhibitor complex (SARS-CoV-2 3CL protease [2]) |
| --- | --- | --- | --- | --- | --- | --- | --- | --- | --- | --- | --- | --- | --- | --- | --- | --- | --- | --- | --- | --- |
| CCc1cc(=O)oc2cc(OC(=O)c3ccco3)ccc12 [CB6728297] | 6.61 | shifts to lower IC50s | 9.07 | 94.7% and 89.2% | 39.5 | 64.9 | 88.9 | 90.8 | 93.8 | 98.7 | 93.4 | 95.6 | 88.8 | 99.1 | – | – | – | – | – | – |
| O=C(Oc1ccc2ccc(=O)oc2c1)c1ccco1 [CB6778425] | – | – | 62.7 | 104% | 85.1 | 94.5 | 102 | 98.7 | 95 | 96.4 | 103 | 98 | 95 | 90.6 | 0.215 | 4.28 | 19.7 | 39.2 | 11.4 | ~ 95 Da |
| O=C(Oc1ccc2ccc(=O)oc2c1)c1cccs1 [CB6762077] | 5.96 | shifts to lower IC50s | – | 71.8% | – | 12.9 | 77.7 | 30.2 | 75.9 | 90.1 | 88.9 | 94.3 | 112 | – | – | – | – | – | – | – |
